Experiments:
[1] = system: Cullin 2 (CUL2) neddylation; experiment: Immunoblot for Cullin 2 (CUL2) neddylation in ACH2 cells; type: cell-based; parameters: dose or concentration left out as unconfirmed; conditions: MLN, with and without TNFa reactivation
[2] = system: HIV; experiment: Infectivity of HIV reactivated from ACH2 cells, TZM-bl reporter cell luciferase assay; type: cell-based; conditions: ACH2 cells treated with MLN 100 nM or 200 nM before and during LRA (TNFa, PMAi, JQ1), vs DMSO, p24-normalized
Method: (§1) (B) MLN treatment of ACH2 cells before and during TNFa provirus reactivation increases the amount of A3G incorporated into virions, a strong candidate mechanism for decreased infectivity shown in (A). Virions from ACH2 cell supernatant were pelleted over a 20% sucrose cushion. […] A3G signal (black bars) and p24 signal (grey bars) from n=3 experiments are quantified on the right (Panel 2 in B).
Virus infectivity was determined by infecting TZM-bl reporter cell line with p24-equivalent amounts of culture supernatant fluid (e.g., normalized to the same p24 amount, as a surrogate for inoculating the same number of virions) from cells pretreated with MLN or DMSO control and reactivated by the 3 LRAs). Supernatant infectivity was measured via luciferase activity in the form of […] (RFU) where higher RFU signifies greater infectivity. Average RFU values were normalized to the control condition (LRA alone without MLN treatment) such that maximum infectivity seen in that control condition is set to 100%.

[3] = system: A3G incorporated into virions; experiment: Immunoblot of A3G in virions pelleted from ACH2 supernatant; type: cell-based, HIV; conditions: ACH2 cells; MLN before and during TNFa reactivation; immunoblot of viral pellets, n=3
From the text: as §1
Virions from ACH2 cell supernatant were pelleted over a 20% sucrose cushion. […] A3G signal (black bars) and p24 signal (grey bars) from n=3 experiments are quantified on the right (Panel 2) in FIG. 3B.

[4] = system: A3G; experiment: A3G LMM/HMM distribution, sucrose density gradient and immunoblot, H9 cells; type: cell-based; conditions: 200 nM MLN for 4 or 6 days
Method: (§2) A3G low molecular mass forms (LMM) (fractions 1-5) and HMM complexes (fractions 7-12) are visualized by immunoblotting of fractions collected after density gradient centrifugation of a 5-40% sucrose gradient. […] (B) CD4+CD45RO+ memory T cells were isolated from healthy donors; cells were then stimulated with CD3/28 Abs (*) and cultured for 4 days with DMSO, 100 nM, or 200 nM MLN before density gradient centrifugation and immunoblotting of gradient fractions.

[5] = system: A3G; experiment: A3G LMM/HMM distribution, sucrose density gradient and immunoblot, CD4+CD45RO+ memory T cells; type: cell-based; conditions: CD4+CD45RO+ memory T cells from healthy donors, CD3/28 stimulated; 4 days, 100 nM or 200 nM MLN vs DMSO
Method: as §2

[6] = system: HIV capsid antigen (p24); experiment: Extracellular p24 ELISA of ACH2 culture supernatant after provirus reactivation; type: cell-based; conditions: ACH2 cells; MLN before and during LRAs (TNFa 10 ng/mL, PMA/i, JQ1), n=3 each
Method: (§3) MLN decreases reactivation of latent provirus, as shown in VIF+, replication-competent provirus, from the latently infected ACH2 T cell line based on HIV capsid p24 amounts in cell culture supernatant fluid and intracellularly after 3 different LRAs: tumor necrosis factor alpha (TNFa) at 10 ng/mL; PMA/ionomycin (PMAi) at 405 pM phorbol 12-myristate 13-acetate (PMA) and 6.7 nM ionomycin (eBiosciences™ stimulation cocktail); and JQ1 at 100 nM (FIGS. 5 and 6). […] MLN reduces intracellular p24 production from ACH2 1 cells treated with TNFa, PMAi, and JQ1, compared to DMSO control (FIG. 6A). […] HIV promoter-driven RNA is also shown to be decreased by MLN before/during TNFa or PMAi (FIG. 7). […] ACH2 cells were pretreated for 6 hours with DMSO, or MLN at […], and then reactivated with 10 ng/mL TNFa or PMA/ionomycin.

[7] = system: HIV capsid antigen (p24); experiment: Immunoblot of p24 in reactivated virions pelleted from ACH2 supernatant; type: cell-based; conditions: LRA-exposed ACH2 cells; MLN vs control
Method: as §3

[8] = system: HIV capsid antigen (p24); experiment: Immunoblot of p24 in reactivated virions pelleted from J-Lat 6.3 supernatant; type: cell-based; conditions: LRA-exposed J-Lat 6.3 cells; MLN vs control
[9] = system: intracellular p24; experiment: Intracellular p24 production in ACH2 cells exposed to LRAs; type: cell-based, HIV; conditions: ACH2 cells treated with TNFa (n=4), PMA/i (n=4), JQ1 (n=3); vs DMSO control
From the text: (§4) (B) MLN reduces intracellular p24 production from J-Lat 6.3 cells exposed to TNFa, as well as from ACH2 cells exposed to TNFa. […] (C) Six hour treatment of J-Lat cells (both J-Lat 6.3 and J-Lat 11.1) with MLN before and during LRA exposure reduces HIV promoter-driven GFP expression after exposure to TNFa, PMAi and JQ1.
as §3

[10] = system: intracellular p24; experiment: Intracellular p24 production in J-Lat 6.3 cells exposed to TNFa; type: cell-based, HIV
From the text: as §4

[11] = system: HIV promoter-driven GFP expression; experiment: HIV promoter-driven GFP expression in J-Lat 6.3 cells; type: cell-based; conditions: six hour MLN treatment before and during LRA exposure (TNFa, PMAi, JQ1)
From the text: as §4, §3

[12] = system: HIV promoter-driven GFP expression; experiment: HIV promoter-driven GFP expression in J-Lat 11.1 cells; type: cell-based; conditions: six hour MLN treatment before and during LRA exposure (TNFa, PMAi, JQ1)
From the text: as §4, §3

[13] = system: HIV gag RNA; experiment: HIV gag RNA RT-qPCR in ACH2 cells; type: cell-based; conditions: MLN at before and during TNFa 10 ng/mL or PMA/ionomycin, 48 hours after reactivation, vs DMSO
Method: Gag RNA is reduced in ACH2 cells as measured by RT-qPCR 48 hours after reactivation. ACH2 cells were treated with either DMSO or MLN (at […]) before and during exposure to either 10 ng/mL TNFa (plot on left) or 405 pM PMA and 6.7 nM ionomycin (eBiosciences stimulation cocktail) (plot on right); 4 separate ACH2 cell cultures were used for each plot's experiment.
as §3

[14] = system: ACH2 cells; experiment: Annexin V / SYTOX Green apoptosis flow cytometry in ACH2 cells; type: cell-based; conditions: 200 nM MLN 6 hours before and during 10 ng/mL TNFa, 16 hours post-TNFa
Method: (§5) ACH2 cells were pretreated for 6 hours with 200 nM MLN prior to provirus reactivation with 10 ng/mL TNFa. 16 hours post-TNFa addition cells were collected; apoptosis was measured via flow cytometry by staining for Annexin V and SYTOX Green DNA intercalant. […] Data was collected 24 hours after TNFa addition. (C) CD4+ T cells from 3 healthy donors were activated for 48 hrs with anti-CD3/CD28 antibodies. Cells were then treated with 200 nM of MLN and apoptosis was measured after 6, 16, and 24 hrs of drug treatment using flow cytometry. * p<0.05 *** p=0.0002 (D) Expression of RNA encoding cell cycling and apoptotic targets assessed before in ACH2 cells was determined in primary CD4 T cells via RT-qPCR. Gene expression was normalized to 18S control ** p=0.0033 **** p<0.0001 A&B) n=3 donors.
(§6) ACH2 cells were treated with 200 nM MLN for 6 hours before and then during reactivation with 10 ng/mL TNFa. 16 hours post-TNFa addition, cells were collected and percentage of apoptotic cells increased with MLN treatment upon reactivation (FIG. 8A).

[15] = system: NOXA, PUMA, p21, p53 RNA; experiment: RT-qPCR for apoptotic targets and cell cycle indicators in ACH2 cells; type: cell-based; conditions: 200 nM MLN before and during 10 ng/mL TNFa, 24 hours after TNFa
Method: as §5, §6

[16] = system: primary CD4+ T cells; experiment: Apoptosis flow cytometry in anti-CD3/CD28-activated uninfected primary CD4+ T cells; type: cell-based; conditions: uninfected CD4+ T cells from 3 healthy donors, anti-CD3/CD28 activated 48 hrs; 200 nM MLN; at 16 hours
Method: as §5, §6

[17] = system: PUMA, NOXA, p21, p53 RNA; experiment: RT-qPCR for apoptotic targets and cell cycle indicators in primary CD4 T cells; type: cell-based; conditions: MLN
Method: as §5, §6

[18] = system: Cullin RING Ligase (CRL^Vif)-mediated degradation of APOBEC3G (A3G); conditions: ex vivo, de novo HIV infections; previously reported; cited from earlier work

NS(=O)(=O)OC[C@@H]1C[C@@H](n2ccc3c(N[C@H]4CCc5ccccc54)ncnc32)C[C@@H]1O [MLN, pevonedistat]
Cullin 2 (CUL2) neddylation [1]: inhibits
infectivity of HIV in culture supernatant fluid [2]: less infectious
amount of A3G incorporated into virions [3]: increases
intracellular distribution of A3G (LMM form vs HMM complexes) [4]: shift to LMM form
intracellular distribution of A3G (LMM form vs HMM complexes) [5]: shift to LMM form
extracellular p24 antigen in culture supernatant fluid (ELISA) [6]: significantly reduced
p24 antigen in pelleted reactivated virions (immunoblot) [7]: reduced
p24 antigen in pelleted reactivated virions (immunoblot) [8]: reduced
intracellular p24 production [9]: significantly reduces
intracellular p24 production [10]: reduces
HIV promoter-driven GFP expression [11]: reduces
HIV promoter-driven GFP expression [12]: reduces
HIV gag RNA expression (RT-qPCR) [13]: reduced
percentage of cells dying from apoptosis (Annexin V) [14]: increases
p53 RNA expression [15]: does not increase
relative expression of RNA encoding NOXA [15]: increased
relative expression of RNA encoding PUMA [15]: increased
relative expression of RNA encoding p21 [15]: increased
apoptosis-mediated cell death (Annexin V) [16]: increase
p53 RNA expression [17]: did not significantly increase
NOXA gene expression (RT-qPCR) ([17]; normalized to 18S): increase
PUMA gene expression (RT-qPCR) ([17]; normalized to 18S): increase
p21 expression (RT-qPCR) ([17]; normalized to 18S): increase
CRL^Vif-mediated degradation of APOBEC3G (A3G) [18]: block

— patent US20240082250A1, “NEDDYLATION INHIBITION FOR USE IN THE TREATMENT OF HUMAN IMMUNODEFICIENCY VIRUS (HIV) INFECTION” (priority 2022, published 2024)
